Experimental data: ChEMBL document CHEMBL1201862, “PubChem BioAssay data set” (2004)
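Step 1: Grow cells in 96-well plates. Step 2: Expose to compound for 48 hours at 5 concentrations. Step 3: Interpolate endpoints linearly; if unreached, use highest concentration. GI50 = concentration required for 50% inhibition of growth.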 Activity calls are given as the source filed them. No stated cut-off is given here; in the data, active = GI50 up to about 1.1 µM and inactive = higher.

Experiments:
Assay in all cases: NCI-60 cell line screen, 48 h
SF-268 = tested on: SF-268
OVCAR-4 = tested on: OVCAR-4
A549 = tested on: A549
EKVX = tested on: EKVX
COLO 205 = tested on: COLO 205
HCC 2998 = tested on: HCC 2998
ACHN = tested on: ACHN
HT-29 = tested on: HT-29
HCT-15 = tested on: HCT-15
SK-MEL-28 = tested on: SK-MEL-28
SN12C = tested on: SN12C
BT-549 = tested on: BT-549
IGROV-1 = tested on: IGROV-1
SK-MEL-5 = tested on: SK-MEL-5
SK-OV-3 = tested on: SK-OV-3
RPMI-8226 = tested on: RPMI-8226
NCI-H522 = tested on: NCI-H522
HL-60 = tested on: HL-60
MDA-N = tested on: MDA-N
DMS-273 = tested on: DMS-273

Row | SMILES | GI50 (SF-268) | GI50 (OVCAR-4) | GI50 (A549) | GI50 (EKVX) | GI50 (COLO 205) | GI50 (HCC 2998) | GI50 (ACHN) | GI50 (HT-29) | GI50 (HCT-15) [µM] | GI50 (SK-MEL-28) | GI50 (SN12C) | GI50 (BT-549) | GI50 (IGROV-1) | GI50 (SK-MEL-5) | GI50 (SK-OV-3) | GI50 (RPMI-8226) | GI50 (NCI-H522) | GI50 (HL-60) | GI50 (MDA-N) | GI50 (DMS-273)
1 | COc1cc(S(=O)(=O)Nc2ccc(-c3csc(N4C(=O)C(Cl)C4c4cccc(Oc5ccccc5)c4)n3)cc2)ccc1Cl (stereo not given) | 15 µM (inactive) | 4.91 µM (inactive) | > 100 µM (inactive) | 20.7 µM (inactive) | 21.5 µM (inactive) | > 100 µM (inactive) | 24 µM (inactive) | 49.5 µM (inactive) | > 100 | 24.3 µM (inactive) | 15.5 µM (inactive) | 21.2 µM (inactive) | 2.71 µM (inactive) | 29.1 µM (inactive) | > 100 µM (inactive) | 19.7 µM (inactive) | 1.69 µM (inactive) | 20.5 µM (inactive) | 22.3 µM (inactive) | 
2 | CCOC(=O)C1(O)C(=O)C2=C3C(=O)OC(C4OC(=O)c5c(c(O)c(O)c(O)c5C31)-c1c(cc(O)c(O)c1O)C(=O)OC1COC(=O)c3cc(O)c(O)c(O)c3-c3c(cc(O)c(O)c3O)C(=O)OC14)[C@@H]2O (stereo not given in full) | 22.4 µM (inactive) | 17.6 µM (inactive) | 15.2 µM (inactive) | 13.4 µM (inactive) | 15.7 µM (inactive) | 25.7 µM (inactive) | 17.8 µM (inactive) | 18.5 µM (inactive) | 17.6 | > 100 µM (inactive) | 17 µM (inactive) | 18.8 µM (inactive) | 26 µM (inactive) | 14.3 µM (inactive) | 61.8 µM (inactive) | 28.5 µM (inactive) | 21 µM (inactive) | 19.1 µM (inactive) | 14.9 µM (inactive) | 
3 | COC(=O)/C=C\C(C#N)(C#N)/N=C/c1ccc(Br)cc1 | 15.5 µM (inactive) | 8.83 µM (inactive) | 2.77 µM (inactive) | 14.2 µM (inactive) | 3.37 µM (inactive) | 16.9 µM (inactive) | 2.97 µM (inactive) | 2.58 µM (inactive) | 2.94 | 15.4 µM (inactive) | 5.42 µM (inactive) | 11.2 µM (inactive) | 14.3 µM (inactive) | 1.5 µM (inactive) | 18.8 µM (inactive) | 2.38 µM (inactive) | 0.489 µM (active) | 0.0389 µM (active) | 5.71 µM (inactive) | 
4 | Cc1cc(C)nc(NS(=O)(=O)c2ccc(NNC(=O)c3cccc4c(NNc5ccc(S(=O)(=O)Nc6nc(C)cc(C)n6)cc5)c5ccccc5nc34)cc2)n1 | 20.7 µM (inactive) | 23.3 µM (inactive) | 30.5 µM (inactive) | 18.7 µM (inactive) | 20.9 µM (inactive) | 21.4 µM (inactive) | 17.3 µM (inactive) | 21.8 µM (inactive) | 19.7 | 23.4 µM (inactive) | 31.1 µM (inactive) | 24.7 µM (inactive) | 20 µM (inactive) | 16.9 µM (inactive) | 25.3 µM (inactive) | 25.6 µM (inactive) | 18.1 µM (inactive) | 20.7 µM (inactive) | 20.9 µM (inactive) | 
5 | S=C(N/N=C(\c1ccccc1)c1ccccn1)NC1CCCCC1 | 2.66 µM (inactive) | 7.91 µM (inactive) | 13.9 µM (inactive) | 1.4 µM (inactive) | 0.543 µM (active) | > 61.4 µM (inactive) | 0.571 µM (active) | 0.274 µM (active) | 1.02 | 46.1 µM (inactive) | 0.804 µM (active) | 23.4 µM (inactive) | 0.31 µM (active) | 13.1 µM (inactive) | 11.5 µM (inactive) | 2.16 µM (inactive) | 1.94 µM (inactive) | 0.16 µM (active) | 78.7 µM (inactive) | 
6 | CSc1nc(SC)c2c(C(N)=S)n[nH]c2n1 | 31.2 µM (inactive) | 21.2 µM (inactive) | 23 µM (inactive) | 22.2 µM (inactive) | 18.2 µM (inactive) |  | 24 µM (inactive) | 33 µM (inactive) | 36.2 | 31.7 µM (inactive) | 36.3 µM (inactive) |  | 30.4 µM (inactive) | 17.9 µM (inactive) | 23.6 µM (inactive) | 23.1 µM (inactive) | > 10 µM (inactive) |  |  | 30 µM (inactive)
7 | OC(CC(O)(C(F)(F)Cl)C(F)(F)Cl)c1ccccc1 (stereo not given) | > 10 µM (inactive) | > 10 µM (inactive) | > 10 µM (inactive) | > 10 µM (inactive) | > 10 µM (inactive) | > 10 µM (inactive) | > 10 µM (inactive) | > 10 µM (inactive) | > 10 | > 10 µM (inactive) | > 10 µM (inactive) | > 10 µM (inactive) | 0.0258 µM (active) | 0.00809 µM (active) | > 10 µM (inactive) | > 10 µM (inactive) | > 10 µM (inactive) | > 10 µM (inactive) | > 10 µM (inactive) | 
8 | CC(=O)O[C@H]1C(=O)[C@@]2(C)[C@H]([C@H](OC(=O)c3ccc(F)cc3)[C@]3(O)C[C@H](OC(=O)[C@H](O)[C@@H](NC(=O)c4ccccc4)c4ccccc4)C(C)=C1C3(C)C)[C@]1(OC(C)=O)CO[C@@H]1C[C@@H]2O | 0.0929 µM (active) | 6.58 µM (inactive) | 0.082 µM (active) | 2 µM (inactive) | 0.0108 µM (active) | 0.0107 µM (active) | 0.802 µM (active) | 0.00678 µM (active) | 1.47 | 9.48 µM (inactive) | 0.528 µM (active) | 0.64 µM (active) | 0.0233 µM (active) | 0.023 µM (active) | 0.0159 µM (active) | 0.00592 µM (active) | 0.0116 µM (active) | 0.00469 µM (active) | 0.0025 µM (active) | 
9 | O=C1C=CC(=O)c2c1ccc1c3ccccc3n(Cc3cccc([N+](=O)[O-])c3)c21 | 39.6 µM (inactive) | 23.8 µM (inactive) | > 100 µM (inactive) | > 100 µM (inactive) | 14.3 µM (inactive) | > 80.7 µM (inactive) | 18.2 µM (inactive) | 30.4 µM (inactive) | 21.5 | > 43.6 µM (inactive) | 21.8 µM (inactive) | 40.1 µM (inactive) | 22.9 µM (inactive) | 53.3 µM (inactive) | > 100 µM (inactive) | 17.8 µM (inactive) | 18.8 µM (inactive) | 6.9 µM (inactive) | 16 µM (inactive) | 
10 | CCOC12SC(Nc3ccc(C)cc3)=NN1C(=S)N(C)N=C2C (stereo not given) | > 100 µM (inactive) | > 100 µM (inactive) | > 100 µM (inactive) | > 100 µM (inactive) | > 100 µM (inactive) |  | > 100 µM (inactive) | > 100 µM (inactive) | > 100 | > 100 µM (inactive) | > 100 µM (inactive) |  | > 100 µM (inactive) | > 100 µM (inactive) |  | > 100 µM (inactive) | > 100 µM (inactive) | > 100 µM (inactive) |  | > 100 µM (inactive)
11 | CC(C)(C)c1cc2c(OC/C=C/c3ccccc3)c(c1)Cc1cc(C(C#N)(OC/C=C/c3ccccc3)OC/C=C/c3ccccc3)cc(c1OC/C=C\c1ccccc1)Cc1cc(C(C)(C)C)cc(c1OC/C=C/c1ccccc1)Cc1cc(C(C#N)(OC/C=C\c3ccccc3)OC/C=C/c3ccccc3)cc(c1OC/C=C\c1ccccc1)C2 (stereo not given) | > 100 µM (inactive) | > 100 µM (inactive) | > 100 µM (inactive) | > 100 µM (inactive) | > 100 µM (inactive) | > 100 µM (inactive) | > 100 µM (inactive) | > 100 µM (inactive) | > 100 | > 100 µM (inactive) | > 100 µM (inactive) | > 100 µM (inactive) | > 100 µM (inactive) | > 100 µM (inactive) | > 100 µM (inactive) | > 100 µM (inactive) | > 100 µM (inactive) | > 100 µM (inactive) | > 100 µM (inactive) | 
12 | O=C1/C(=C\c2cccs2)Oc2ccccc21 | 51.1 µM (inactive) | 31.5 µM (inactive) | 56.9 µM (inactive) | 25.9 µM (inactive) | 75.3 µM (inactive) | 64.6 µM (inactive) | 47.2 µM (inactive) | 63.7 µM (inactive) | 36.6 | > 100 µM (inactive) | > 100 µM (inactive) | 41.2 µM (inactive) | 26.7 µM (inactive) | 51.6 µM (inactive) | 38 µM (inactive) | 69.5 µM (inactive) | 39.8 µM (inactive) | 49.8 µM (inactive) | > 100 µM (inactive) | 
13 | COC(=O)/N=[N+](\[O-])C(c1ccc(OC)cc1)C1CCCCC1 (stereo not given) | 4.23 µM (inactive) | 0.802 µM (active) | 5.07 µM (inactive) | 0.991 µM (active) | 0.611 µM (active) | 2.12 µM (inactive) | 2.56 µM (inactive) | 1.29 µM (inactive) | 1.26 | 13.6 µM (inactive) | 1.8 µM (inactive) | 8.39 µM (inactive) | 4.18 µM (inactive) | 2.08 µM (inactive) | 3.67 µM (inactive) | 0.948 µM (active) | 1.03 µM (active) | 0.787 µM (active) | 2.03 µM (inactive) | 
14 | O=C(Cc1nccc2c1[nH]c1ccccc12)OC1C#CCSCC#C/C=C\1 (stereo not given) | > 100 µM (inactive) | > 100 µM (inactive) | > 100 µM (inactive) | 64.4 µM (inactive) | 52.1 µM (inactive) | > 100 µM (inactive) | > 100 µM (inactive) | > 100 µM (inactive) | > 100 | > 100 µM (inactive) | > 100 µM (inactive) | > 100 µM (inactive) | > 100 µM (inactive) | > 100 µM (inactive) | > 100 µM (inactive) | > 100 µM (inactive) | 44.2 µM (inactive) | 57 µM (inactive) | > 100 µM (inactive) | 
